Measurements published in patent US10100010B1, “4-methoxy pyrrole derivatives or salts thereof and pharmaceutical composition comprising the same” (Daewoong Pharmaceutical Co., Ltd., priority 2015, dated 2018).
Where a name gives a salt, the structure may show the parent alone.

Columns and labels:
Type in all cases: cell-based
5-HT2A = 5-HT2A (Homo sapiens, UniProt P28223); experiment: GPCR Calcium Flux assay (FLIPR tetra, Eurofins), 5-HT2A; conditions: for inhibition at 10 µM: single concentration of 10 uM, read-out: inhibition rate (%) 5-HT2A; for IC50: 8 concentrations 10 to 0.0006 uM, read-out: 50% inhibitory concentration (IC50) 5-HT2A
Sequence of 5-HT2A (P28223 whole entry): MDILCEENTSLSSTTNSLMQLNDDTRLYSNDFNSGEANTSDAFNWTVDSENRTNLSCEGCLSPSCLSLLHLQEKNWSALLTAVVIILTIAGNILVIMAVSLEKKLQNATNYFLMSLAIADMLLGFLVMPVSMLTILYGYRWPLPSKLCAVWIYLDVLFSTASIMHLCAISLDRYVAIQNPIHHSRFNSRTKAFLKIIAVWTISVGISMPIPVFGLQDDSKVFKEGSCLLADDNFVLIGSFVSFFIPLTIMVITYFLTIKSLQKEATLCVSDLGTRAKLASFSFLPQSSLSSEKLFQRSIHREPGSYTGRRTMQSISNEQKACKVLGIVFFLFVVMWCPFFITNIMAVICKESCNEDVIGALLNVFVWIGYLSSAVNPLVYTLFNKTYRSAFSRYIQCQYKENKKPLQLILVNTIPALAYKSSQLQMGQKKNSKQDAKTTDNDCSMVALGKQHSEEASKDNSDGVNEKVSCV
Protocol: (§1) In order to confirm whether the compounds prepared in the above Examples act as an agonist or antagonist against GPCR Target, Calcium Flux assay was performed in an assay plate in which the compounds prepared in the Examples, vehicle controls, and reference compounds were added, using a Fluorometric imaging plate reader (FLIPR tetra) equipment.
(§2) Calcium Flux assay was evaluated by entrusting the GPCR profiler assay in Safety panel assays with Eurofins. By using the Fluo-8AM calcium dye, excitation was measured at a wavelength in the range of 470 to 495 nm and Emission was measured at a wavelength in the range of 515-575 nm. GPCR Assay Buffer for Calcium Flux assay was prepared by adding 20 mM of HEPES and 2.5 mM of Probenecid to Hanks Balanced Salt Solution (HBSS) to have pH 7.4. The Compounds of Examples for evaluation of the GPCR were diluted with DMSO at a concentration of 10 mM to make a stock and then prepared by diluting in the GPCR Assay Buffer at the concentration equivalent to three times the final concentration. First, for the evaluation of GPCRs, the inhibitory activity of the compounds of the Examples was evaluated at a single concentration of 10 uM, and then the respective selected targets were four fold-diluted from 10 uM to the low side to calculate 50% inhibitory concentration (IC50), prepared at the total 8 concentrations of 10, 2.5, 0.62, 0.15, 0.04, 0.01, 0.0024, 0.0006 uM, and Calcium Flux assay for GPCR was conducted. In order to evaluate the agonist and antagonist, % inhibition rate against GPCR activity before and after treatment of the compounds and the inhibitory activity of the compounds of the Examples were determined.
(§3) As a result, when the efficacy of […] and acetylcholine of the compounds prepared in the Examples was 100%, the inhibition rate (%) at a single concentration of 10 uM was evaluated and shown in Table 8.

M1 = target: T1, M1 (Homo sapiens, UniProt P11229); experiment: GPCR Calcium Flux assay (FLIPR tetra, Eurofins), M1; conditions: for inhibition at 10 µM: single concentration of 10 uM, read-out: inhibition rate (%) M1; for IC50: 8 concentrations 10 to 0.0006 uM, read-out: 50% inhibitory concentration (IC50) M1
T1 sequence (P11229 1-460): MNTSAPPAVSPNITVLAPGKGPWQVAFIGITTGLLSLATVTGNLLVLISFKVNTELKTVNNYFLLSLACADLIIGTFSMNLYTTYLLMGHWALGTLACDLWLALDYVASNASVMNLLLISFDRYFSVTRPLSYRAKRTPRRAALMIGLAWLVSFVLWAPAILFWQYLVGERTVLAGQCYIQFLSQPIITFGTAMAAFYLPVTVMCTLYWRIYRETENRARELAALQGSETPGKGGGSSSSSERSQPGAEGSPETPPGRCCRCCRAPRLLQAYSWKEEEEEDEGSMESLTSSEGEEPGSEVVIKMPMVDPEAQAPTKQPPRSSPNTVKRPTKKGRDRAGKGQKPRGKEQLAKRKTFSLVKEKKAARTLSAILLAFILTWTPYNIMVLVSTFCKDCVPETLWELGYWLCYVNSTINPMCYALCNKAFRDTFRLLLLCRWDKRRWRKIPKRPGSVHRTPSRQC
Protocol: as §1, §2, §3

M2 = target: T2, M2 (Homo sapiens, UniProt P08172); experiment: GPCR Calcium Flux assay (FLIPR tetra, Eurofins), M2; conditions: for inhibition at 10 µM: single concentration of 10 uM, read-out: inhibition rate (%) M2
T2 sequence (P08172 1-466): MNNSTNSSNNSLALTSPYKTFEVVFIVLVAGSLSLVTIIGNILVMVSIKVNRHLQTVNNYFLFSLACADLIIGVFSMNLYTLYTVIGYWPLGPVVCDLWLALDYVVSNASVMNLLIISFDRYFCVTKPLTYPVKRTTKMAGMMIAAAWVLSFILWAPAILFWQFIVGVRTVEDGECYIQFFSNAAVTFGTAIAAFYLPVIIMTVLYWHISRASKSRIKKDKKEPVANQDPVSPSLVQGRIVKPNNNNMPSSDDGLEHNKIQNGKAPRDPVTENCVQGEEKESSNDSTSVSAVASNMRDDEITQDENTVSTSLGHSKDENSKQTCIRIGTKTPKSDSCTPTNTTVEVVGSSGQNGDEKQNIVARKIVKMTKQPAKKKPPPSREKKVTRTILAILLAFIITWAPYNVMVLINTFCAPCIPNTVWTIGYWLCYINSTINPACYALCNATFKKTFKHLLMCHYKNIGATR
Protocol: as §1, §2, §3

For CNCc1cn(S(=O)(=O)c2cccc(C(F)(F)F)c2)c(-c2c(F)cccc2F)c1OC [Example 15, 1-(5-(2,6-difluorophenyl)-1-((3-(trifluoromethyl)phenyl)sulfonyl)-4-methoxy-1H-pyrrol-3-yl)-N-methylmethanamine hydrochloride], the inhibition at 10 µM (5-HT2A) was 30.1%, the inhibition at 10 µM (M1) was 87.1% and the inhibition at 10 µM (M2) was 62.1%.

Compound CNCc1cn(S(=O)(=O)c2ccc(F)c(F)c2)c(-c2c(F)cccc2F)c1OC [Example 19, 1-(5-(2,6-difluorophenyl)-1-((3,4-difluorophenyl)sulfonyl)-4-methoxy-1H-pyrrol-3-yl)-N-methylmethanamine hydrochloride] has an IC50 (5-HT2A) of 120 nM, an inhibition at 10 µM (5-HT2A) of 102% and an IC50 (M1) of 430 nM. The inhibition at 10 µM (M1) was 101%, the IC50 (M2; 8 concentrations 10 to 0.0006 uM, read-out: 50% inhibitory concentration (IC50) M2) was 820 nM and the inhibition at 10 µM (M2) was 102%.

With CNCc1cn(S(=O)(=O)c2cccc(Cl)c2)c(-c2ccc(Cl)cc2F)c1OC [Example 6, 1-(5-(2-fluoro-4-chlorophenyl)-4-methoxy-1-((3-chlorophenyl)sulfonyl)-1H-pyrrol-3-yl)-N-methylmethanamine hydrochloride] the IC50 (5-HT2A) was 160 nM, the inhibition at 10 µM (5-HT2A) was 102% and the IC50 (M1) was ~3000 nM. The inhibition at 10 µM (M1) was 93.1% and the inhibition at 10 µM (M2) was 15.1%.

CNCc1cn(S(=O)(=O)c2cccc(C(F)(F)F)c2)c(-c2ccc(F)cc2F)c1OC [Example 9, 1-(5-(2,4-difluorophenyl)-1-((3-(trifluoromethyl)phenyl)sulfonyl)-4-methoxy-1H-pyrrol-3-yl)-N-methylmethanamine hydrochloride] was tested, and the inhibition at 10 µM (5-HT2A) was 61.1%, the inhibition at 10 µM (M1) was 74.7% and the inhibition at 10 µM (M2) was 18.3%.

CNCc1cn(S(=O)(=O)c2cccc(C)c2)c(-c2ccc(F)cc2F)c1OC [Example 10, 1-(5-(2,4-difluorophenyl)-1-((3-methylphenyl)sulfonyl)-4-methoxy-1H-pyrrol-3-yl)-N-methylmethanamine hydrochloride] was tested, and the IC50 (5-HT2A) was 360 nM, the inhibition at 10 µM (5-HT2A) was 101% and the IC50 (M1) was 1300 nM. It also gave an inhibition at 10 µM (M1) of 96.2% and an inhibition at 10 µM (M2) of 77.6%.

CNCc1cn(S(=O)(=O)c2cccc(Cl)c2)c(-c2c(F)cccc2F)c1OC [Example 14, 1-(5-(2,6-difluorophenyl)-1-((3-chlorophenyl)sulfonyl)-4-methoxy-1H-pyrrol-3-yl)-N-methylmethanamine hydrochloride] was tested, and the IC50 (5-HT2A) was 210 nM, the inhibition at 10 µM (5-HT2A) was 99.9% and the inhibition at 10 µM (M1) was 94.9%. It also gave an inhibition at 10 µM (M2) of 48.1%.

CNCc1cn(S(=O)(=O)c2cccc(C(F)(F)F)c2)c(-c2cc(F)ccc2F)c1OC [Example 32, 1-(5-(2,5-difluorophenyl)-1-((3-trifluoromethylphenyl)sulfonyl)-4-methoxy-1H-pyrrol-3-yl)-N-methylmethanamine hydrochloride] showed an inhibition at 10 µM (5-HT2A) of 10.6%, an inhibition at 10 µM (M1) of 52.6% and an inhibition at 10 µM (M2) of 10.8%.

Compound CNCc1cn(S(=O)(=O)c2ccc(F)c(F)c2)c(-c2c(F)cc(F)cc2F)c1OC [Example 26, 1-(1-((3,4-difluorophenyl)sulfonyl)-4-methoxy-5-(2,4,6-trifluorophenyl)-1H-pyrrol-3-yl)-N-methylmethanamine hydrochloride] has an inhibition at 10 µM (5-HT2A) of 99%, an inhibition at 10 µM (M1) of 101% and an inhibition at 10 µM (M2) of 89.2%.

CNCc1cn(S(=O)(=O)c2cccc(OC)c2)c(-c2ccccc2Cl)c1OC [Example 5, 1-(5-(2-chlorophenyl)-4-methoxy-1-((3-methoxyphenyl)sulfonyl)-1H-pyrrol-3-yl)-N-methylmethanamine hydrochloride] was tested, and the inhibition at 10 µM (5-HT2A) was 69.1%, the inhibition at 10 µM (M1) was 93.7% and the inhibition at 10 µM (M2) was 75.1%.
